According to patent publication US20080269666A1, “Microneedles and Methods for Microinfusion” (GEORGIA TECH RESEARCH CORPORATION, priority 2005, published 2008):

Columns and labels:
[1] = Fluorescence microscopy of skin distribution after microinjection into hairless rat skin; type: in vivo
Source text: FIG. 17A-B are micrographs showing hairless rat skin microinjected in vivo with FITC-insulin. Histological sections are shown using brightfield microscopy with H&E staining (FIG. 17A) and fluorescence microscopy showing injection and distribution of insulin in the skin (FIG. 17B). Scale bar=100 μm. Single, hollow, glass microneedles were inserted into the back skin of anesthetized rats placed in a prone position or into human cadaver skin (2×2 cm^2) placed on a x-y stage. Compounds delivered included blue tissue-marking dye in PBS (20% v/v, Shandon, Pittsburg, Pa.), green-fluorescent calcein in PBS (10 μM-10 mM, Molecular Probes, Eugene, Oreg.). After microinfusion experiments, skin samples were preserved as described in Example 1. Histological sections of skin were examined by stereoscopic (SZX12, Olympus, Melville, N.Y.) and fluorescence microscopy (IX 70, Olympus). Images were recorded by a digital camera (Spot RT Slider camera, Model 231, Diagnostic Instruments, Sterling Heights, Mich.) and analyzed using image analysis software (Image Pro Plus, version 4.5, Media Cybernetics, Silver Spring, Md.). The volume of injected liquid was imaged in the skin for quantitative analysis using one of three different methods. […] During insulin delivery experiments, rats were anesthetized. […]

[2] = Effect of hyaluronidase on microneedle infusion flow rate into human cadaver skin in vitro; details: 200 U/ml hyaluronidase in sulforhodamine solution vs without; bevel-tip microneedle inserted 1080 μm; 138 kPa; ANOVA p≦0.01
Protocol: To measure flow rate into skin during microneedle infusion, a single microneedle was inserted into human cadaver skin to microinfuse sulforhodamine solution and the infusion flow rate was measured over time. As an aid to visualizing flow into skin, sulforhodamine-B dye (Molecular Probes, Eugene, Oreg.) was added to PBS, stirred, and filtered (0.2 μm pore size, Nalge Nunc International, Rochester, N.Y.) to make 1×10^−3 M sulforhodamine solution. […]
The flow rate of sulforhodamine solution microinjection was determined by following movement of the gas-liquid meniscus in the syringe reservoir over time with a digital video camera (DCR-TRV460, Sony, Tokyo, Japan) and image analysis software (Adobe Photoshop 7.0, Adobe Systems, San Jose, Calif.) after converting the captured movie into sequences of still images (Adobe Premiere 6.0, Adobe Systems). […]
The effect of hyaluronidase was determined by comparing to an infusion fluid containing 200 U/ml hyaluronidase prepared by mixing 3 ml of hyaluronidase solution (Vitrase™, 200 U/ml, ISTA Pharmaceuticals, Irvine, Calif.) with 7 mL of 1×10^−3 M sulforhodamine solution. […] Microinfusion flow rate was measured as a function of retraction distance during infusion in the absence (white bars) or presence (black bars) of hyaluronidase. Data are expressed as mean values (n≧3) with standard deviation bars. […]

diabetic hairless rats = test: Blood glucose in diabetic hairless rats after insulin microinfusion through a hollow microneedle; type: in vivo, rat
Protocol: During insulin delivery experiments, rats were anesthetized. Microneedle infusion was carried out as described in Example 4, using clinical insulin solution (100 U/ml, Humulin R, Eli Lilly, Indianapolis, Ind.), and FITC-labeled insulin in PBS (1 mg/ml, Sigma).
As a companion experiment, insulin was microinjected into the skin of diabetic hairless rats in vivo and blood glucose concentration was monitored over time. Microinjection was carried out via microneedle insertion to a depth of 500-800 μm and infusing for 30 min. The volume of insulin solution microinjected into diabetic rat skin was 5±1 μl over the 30-min infusion period. Over a 4.5-h monitoring period after infusion, blood glucose level dropped and then plateaued at approximately 25% below pre-treatment values. […] Data expressed as mean±SEM.
Recognizing that needle retraction can increase microinfusion, the insulin delivery experiment was repeated by inserting microneedles to the same initial depth in the skin and then retracting by 150-200 μm back toward the skin surface. […] The volume of insulin solution microinjected into diabetic rat skin after needle retraction was 29±12 μl over the 30-min infusion period. […]

O=C(O)CN(CC(=O)O)Cc1cc2c(cc1O)Oc1cc(O)c(CN(CC(=O)O)CC(=O)O)cc1C21OC(=O)c2ccccc21 [calcein]
distribution in skin after microinjection (fluorescence) ([1]; injection at a specific location within the dermis, histological sections): fluoresced more uniformly in both dermis and epidermis

fluorescently labeled insulin: FITC-labeled insulin in PBS (1 mg/ml, Sigma)
distribution in skin after microinjection (fluorescence) ([1]; rat, in vivo): distribute throughout the dermis

hyaluronidase
increase in infusion flow rate [2]: 7 fold

insulin
blood glucose level drop below pre-treatment values (diabetic hairless rats; microneedle inserted 500-800 μm, no retraction, 30-min infusion of 100 U/ml insulin solution (5±1 μl injected), 4.5-h monitoring after infusion, plateau): approximately 25%
blood glucose level drop below pre-treatment values (diabetic hairless rats; microneedle inserted to same depth then retracted 150-200 μm, 30-min infusion of 100 U/ml insulin solution (29±12 μl injected)): approximately 70%
